According to patent US6797497B1, “Biological process for the production of ortho-aminophenols from nitroaromatic compounds using mutase” (The United States of America as represented by the …, priority 2001, dated 2004):

Target: T1, nitrobenzene nitroreductase (Ectopseudomonas oleovorans, UniProt Q6DLR9)
T1 construct: The fractions containing nitrobenzene nitroreductase activity, which eluted in the linear gradient between 65 to 80 ml, were pooled; made in house; host or cells: Pseudomonas pseudoalcaligenes JS45, the native organism (not recombinant); Crude extract fractionated on Q-Sepharose Fast Flow
T1 sequence (Q6DLR9 2-227): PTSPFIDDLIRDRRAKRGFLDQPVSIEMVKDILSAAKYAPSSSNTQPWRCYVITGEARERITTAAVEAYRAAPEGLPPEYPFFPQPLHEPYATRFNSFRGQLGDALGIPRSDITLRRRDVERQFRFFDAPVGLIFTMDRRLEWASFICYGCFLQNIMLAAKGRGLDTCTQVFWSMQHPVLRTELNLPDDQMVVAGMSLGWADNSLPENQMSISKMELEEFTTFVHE
Experiment: Nitrobenzene nitroreductase activity on nitroarene substrates (NADPH oxidation)
Assay type: biochemical, Pseudomonas pseudoalcaligenes strain JS45
Conditions: partially purified enzyme; compound as substrate
Experimental: The crude extract was loaded on a 100 ml Q-Sepharose Fast Flow column (Pharmacia, XK-26) previously equilibrated with 150 mM KCl in 20 mM phosphate buffer. Proteins were eluted with a step gradient that began with 100 ml buffer containing KCl (150 mM) and then a linear gradient of 150 to 300 mM KCl at a flow rate of 2.5 ml/min.
A high performance liquid chromatograph (HPLC) equipped with a diode array detector monitoring A210 (Hewlett-Packard, Model 1040M, Wilmington Del.) was used to identify and quantitate the nitroarenes, intermediates and corresponding aminophenols. […] For the whole cell transformation experiments, the nitroarenes and products were separated on an ABZ column (Supelco, Bellefonte, Pa.) using acetonitrile/water as solvent system. Capillary gas chromatography/mass spectral (GC/MS) analyses were performed splitless on a Hewlett-Packard GC (model 5890) equipped with a mass selective detector (model 5971) and a DB-5 column (J & W Scientific, Folsom, Calif., 30 m long×0.25 mm I.D.×1.0 μm film thickness). The aminophenol derivatized with BSTFA was analyzed by GC/MS using the temperature program beginning at 100° C. and increased 10° C./min to 280° C. The n-butylboronic acid derivative was analyzed using an initial temperature of 50° C. increasing 20° C./min to 340°C.

SMILES | rate of transformation by partially purified nitrobenzene nitroreductase
O=[N+]([O-])c1ccc(Oc2ccccc2)cc1 [4-nitrobiphenyl ether] | 8.1 μmol/min/mg protein
O=[N+]([O-])c1ccccc1 [nitrobenzene] | 7.9 μmol/min/mg protein
